# Like-named read-outs stand apart in the source and are kept apart here.
# Key:
# [1] = system: UVB radiation-induced inflammatory pain in rat cheek; type: in vivo; settings: topical application 10 μM, 100 μL, 2% propylene glycol, UVB-irradiated cheek
# [2] = system: paw incision-induced postoperative pain in rats; test: Paw incision-induced postoperative pain model, mechanical pain threshold; type: in vivo, rat
# Text: A clinically applicable incision model in rodents is a hind-paw deep incision that produces a robust mechanical and cold allodynia, and thermal hyperalgesia (Pogatzki et al., 2003; Xu and Brennan, 2010). Male rats (Sprague-Dawley, 250-260 g, Harlan) used (n=8/group) were anesthetized with 2.5% isoflurane and the skin of the dorsolateral hindpaw surface were prepped by first depilitating it (using Nair), followed by rinsing and application of povidone-iodine. Afterwards, a 5 mm longitudinal incision was made near the hairy/glabrous border though the skin and subcutaneous fascia of the left hindpaw as described by (Pogatzki et al., 2003; Xu and Brennan, 2010). After briefly elevating the underlying muscle with curved forceps the wound is closed with a single nylon (8-0) mattress stitch.
# Pre-surgery (baseline) and 24 hours after the surgery, the mechanical allodynia of the incision hindpaws of the rats were assessed using von Frey monofilaments with an up/down procedure (Chaplan et al., 1994). […] Mechanical pain thresholds were measured at 0.5, 1, 2, 3, 4, 5 and 6 hours post-intradermal injection.
# [3] = system: UVB radiation-induced inflammatory pain in rat cheek; type: in vivo; settings: topical application 10 μM, 100 μL
# Text: Ultraviolet B (UVB) radiation causes cutaneous inflammation in humans and animals. One important clinical consequence of UVB-induced inflammation is causing hyperalgesia. Changes in thermal sensitivities in the area of primary UVB irradiation are well documented both in humans and in the animal models (Zhang et al., 2009). […] This model provides an experimental model of post radiation pain and can mimic one type of burn pain. To determine the magnitude of anti-inflammatory pain effects for a given drug transdermally delivered by way of microneedle delivery, the depilated rat's cheeks were exposed to an inflammatory dosage of Ultraviolet B radiation (Zhang et al., 2009).
# With the skin of a rat's cheek was stretched, the circular (8 mm in diameter) fiberglass applicator of the UV Curing Device (Dymax Bluewave 200) was applied to the center of the rat's cheek. To produce an appropriate inflammation, a total dose of 1200 mJ/cm^2 UVB was administered to one rat cheek for 25 seconds. The same procedure was performed on the rat's contralateral cheek. Upon completion of UVB irradiation, all rats were returned to their home cages and were assessed for thermal pain between 24-48 hours later. […] The rats were lightly anesthetized with urethane (800 mg/kg, IP) and heat-induced withdrawal latencies of the cheeks (an indicator of C fiber stimulation responses) were measured. […] A sham control group (n=6) were only completely depilated and cleansed with ethanol wipes but without UVB challenge.
# After removing patches, cheek withdrawal latencies induced by continuous and noxious heat were assessed at different time points from the end of the 20 minute treatment period up to 3 hours post treatment.
# The patches were applied on the rat cheek for 20 minutes. After removing the patches, cheek withdrawal latencies induced by continuous and noxious heat were assessed at different time points up to 3 hours as described above.
# (§1) After removing the patches, cheek withdrawal latencies induced by continuous and noxious heat were assessed at different time points up to 3 hours.
# Accordingly, anti-inflammatory effects were examined 48 hours post-UVB and after the application of the patch. Twelve rats were subjected to UVB radiation (1200 mJ/cm^2). […] The patch was placed over the inflamed area for a period of 20 minutes. […] Sham control group rats (n=6) were completely depilated and cleansed with ethanol wipes but without any other treatment. The rats were returned to their home cages, and assessed for thermal pain responses 48 hours later. As usual, cheek withdrawal latencies in response to continuous and noxious heat were recorded over a 3-hour time period (hours 49-51 post-UVB).
# as §1
# After removing the patches, cheek withdrawal latencies induced by continuous and noxious heat were assessed at different time points from 20 minutes post administration up to 3 hours.
# Because UVB-irradiation may increase skin permeability, a topical formulation, but not limited to the sample shown here, was made.
# [4] = system: spared nerve injury-induced neuropathic pain in rats; test: Spared nerve injury (SNI)-induced neuropathic pain model, thermal and mechanical pain thresholds; type: in vivo, rat; settings: 50 μL
# Method: Of the three branches of the sciatic nerve the tibial and common peroneal nerves were cut and ligated leaving the sural nerve intact. Pre-surgery baselines (BL, 100%) of the thermal and mechanical pain thresholds of the ipsilateral hindpaws were measured using the Hargreaves thermal stimulator (6.0 A with a surface temperature of 30° C.; Hargreaves et al., 1988) and von Frey hair monofilaments (up-down method, Chaplan et al., 1994). […] All drug testing was conducted with this post-SNI period.
# The rat recovered from anesthesia within a few minutes and the thermal and mechanical pain thresholds were determined at 0.5, 1, 2, 3, 4, 5 and 6 hour after the treatment using the methods described above.
# Using the same test protocol in a different cohort of SNI rats, novel AFA-peptide 3 (0.1, 1 and 3 μM, each 50 μL) or the vehicle (50 μL) was injected into the ipsilateral hindpaws under a brief and light anesthesia condition (with 2.5% isoflurane). The thermal and mechanical pain thresholds were determined at 0.5, 1, 2, 3, 4, 5 and 6 hour after the treatment. […]
# [5] = molecular target: T1, human calcitonin CGRP1 (CGRP1) membrane (Homo sapiens, UniProt O60894+Q16602); type: binding; settings: for binding affinity on CGRP receptors (in words): comparison between peptides
# T1 construct: purchased Perkin Elmer (Waltham, Mass.)
# T1 sequence (O60894 27-148): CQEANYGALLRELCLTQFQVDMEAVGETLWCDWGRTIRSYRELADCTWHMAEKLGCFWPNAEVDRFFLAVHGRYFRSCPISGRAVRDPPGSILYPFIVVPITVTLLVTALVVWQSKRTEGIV
# T1 sequence (Q16602 23-461): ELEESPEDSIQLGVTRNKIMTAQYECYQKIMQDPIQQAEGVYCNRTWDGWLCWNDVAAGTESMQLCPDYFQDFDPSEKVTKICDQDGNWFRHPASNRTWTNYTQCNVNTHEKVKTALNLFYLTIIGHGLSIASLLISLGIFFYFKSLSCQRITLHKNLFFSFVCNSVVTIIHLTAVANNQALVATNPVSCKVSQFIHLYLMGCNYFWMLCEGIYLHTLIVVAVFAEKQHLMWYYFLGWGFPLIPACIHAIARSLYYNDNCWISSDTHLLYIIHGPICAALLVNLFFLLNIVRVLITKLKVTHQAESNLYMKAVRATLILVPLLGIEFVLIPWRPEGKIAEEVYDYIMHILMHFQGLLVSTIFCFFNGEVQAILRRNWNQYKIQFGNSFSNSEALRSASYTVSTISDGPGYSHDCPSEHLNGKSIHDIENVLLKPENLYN
# Method: CGRP1 membrane was homogenized in the assay buffer (50 mM Tris-HCl pH 7.4, 5 mM MgCl2, 0.5% BSA, 0.05% Tween20). […] After 1 h of incubation, at room temperature, samples were filtered, using a Tomtec cell harvester, through glass fiber filters that had been presoaked in 0.05% polyethyleneimine and washed with the cold Tris buffer (50 mM Tris-HCl pH7.4). Filters were counted on a betaplate reader (Wallac).
# [6] = intradermal injection 1 μM, 50 μL, 24 hours after incision
# [7] = prevention: injection 1 μM, 50 μL just prior to closing of the wound
# [8] = daily intradermal injection 1 μM, 10 consecutive days
substance,measurement,setting,value
"H-NFVPTNVGPFAF-NH2 [AFA-peptide 3, NH2-N-F-V-P-T-N-V-G-P-F-A-F-CONH2]",A-delta-fiber-mediated responses (in words),[1],little effects
same,duration of action,[2]; [6],around 6 hours
same,mechanical pain threshold (in words),[2]; [6],significantly increased
same,duration of action,[2]; [7],24 h
same,mechanical pain thresholds vs vehicle (in words),[2]; [7],significantly increased mechanical pain thresholds
same,onset of analgesic effect post treatment,"[2]; prevention: injection just prior to closing of the wound, second timepoint assessed",1 h
same,duration of action,[3],2 h
same,C-fiber-mediated thermal pain thresholds vs vehicle (in words),"[3]; 2% propylene glycol, UVB-irradiated cheek",significant and substantial increase
same,analgesic effect on repeated dosing (in words),[4]; [8],consistent analgesic effects
same,tolerance on repeated dosing (in words),[4]; [8],did not cause tolerance
same,thermal and mechanical pain thresholds (in words),"[4]; local intradermal injection into SNI ipsilateral hindpaw, 0.5-6 hour after treatment, vs vehicle","produced analgesic effects, particularly on thermal pain in a dose-related manner"
same,Hill slope,"[5]; 0.24 nM [125I]-CGRP, Mean±SD",1.20 ± 0.02
same,binding affinity on CGRP receptors (in words),[5],higher affinities than conventional CGRP 27-37 and CGRP 8-37
same,binding affinity on CGRP receptors (in words),[5]; listed as Peptide-3,most potent in binding assay
